According to US9682141B2, “Combination of kinase inhibitors and uses thereof” (INTELLIKINE LLC, priority 2011, dated 2017):
Like-named read-outs stand apart in the source and are kept apart here.

Assays:
Assay type in all cases: biochemical
PI3K α = PI3K α (Homo sapiens (Human), UniProt P42336); experiment: PI 3-Kinase (human) HTRF assay, p110α/p85α
PI3K δ = PI3K δ (Homo sapiens (Human), UniProt O00329); experiment: PI 3-Kinase (human) HTRF assay, p110δ/p85α
PI3K γ = PI3K γ (Homo sapiens (Human), UniProt P48736); experiment: PI 3-Kinase (human) HTRF assay, p110γ
PI3K β = PI3K β (Homo sapiens (Human), UniProt P42338); experiment: PI 3-Kinase (human) HTRF assay, p110β/p85α
[1] = PI 3-Kinase (human) HTRF assay, p110δ/p85α; conditions: read-out: PI3K γ IC50

Sequence of PI3K δ (O00329 whole entry): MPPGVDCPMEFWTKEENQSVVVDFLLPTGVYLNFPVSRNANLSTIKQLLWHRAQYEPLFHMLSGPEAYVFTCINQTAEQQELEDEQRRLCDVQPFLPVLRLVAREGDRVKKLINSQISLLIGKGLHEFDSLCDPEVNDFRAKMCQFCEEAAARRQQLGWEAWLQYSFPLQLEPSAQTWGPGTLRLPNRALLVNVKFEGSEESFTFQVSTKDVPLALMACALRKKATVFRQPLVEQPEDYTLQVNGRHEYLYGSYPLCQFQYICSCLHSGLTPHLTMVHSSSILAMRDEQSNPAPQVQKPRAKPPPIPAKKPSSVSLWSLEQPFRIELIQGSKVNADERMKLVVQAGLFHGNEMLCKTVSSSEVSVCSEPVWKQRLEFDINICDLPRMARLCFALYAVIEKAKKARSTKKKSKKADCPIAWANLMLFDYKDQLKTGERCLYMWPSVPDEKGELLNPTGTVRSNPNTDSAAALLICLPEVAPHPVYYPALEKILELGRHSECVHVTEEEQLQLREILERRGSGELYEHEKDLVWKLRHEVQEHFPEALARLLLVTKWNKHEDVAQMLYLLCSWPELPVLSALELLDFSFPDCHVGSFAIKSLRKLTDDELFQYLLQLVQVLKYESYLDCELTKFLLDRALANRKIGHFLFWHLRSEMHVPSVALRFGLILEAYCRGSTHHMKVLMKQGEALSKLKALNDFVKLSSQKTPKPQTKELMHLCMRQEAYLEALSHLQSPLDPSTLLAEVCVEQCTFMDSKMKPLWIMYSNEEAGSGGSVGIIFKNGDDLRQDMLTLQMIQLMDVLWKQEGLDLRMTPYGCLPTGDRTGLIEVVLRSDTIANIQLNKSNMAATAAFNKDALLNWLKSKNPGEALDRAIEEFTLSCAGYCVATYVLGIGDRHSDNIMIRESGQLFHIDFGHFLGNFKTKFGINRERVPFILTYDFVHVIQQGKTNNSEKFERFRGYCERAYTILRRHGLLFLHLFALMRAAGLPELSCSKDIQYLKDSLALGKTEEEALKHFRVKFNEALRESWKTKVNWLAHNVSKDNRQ
Sequence of PI3K δ (P27986 whole entry partner): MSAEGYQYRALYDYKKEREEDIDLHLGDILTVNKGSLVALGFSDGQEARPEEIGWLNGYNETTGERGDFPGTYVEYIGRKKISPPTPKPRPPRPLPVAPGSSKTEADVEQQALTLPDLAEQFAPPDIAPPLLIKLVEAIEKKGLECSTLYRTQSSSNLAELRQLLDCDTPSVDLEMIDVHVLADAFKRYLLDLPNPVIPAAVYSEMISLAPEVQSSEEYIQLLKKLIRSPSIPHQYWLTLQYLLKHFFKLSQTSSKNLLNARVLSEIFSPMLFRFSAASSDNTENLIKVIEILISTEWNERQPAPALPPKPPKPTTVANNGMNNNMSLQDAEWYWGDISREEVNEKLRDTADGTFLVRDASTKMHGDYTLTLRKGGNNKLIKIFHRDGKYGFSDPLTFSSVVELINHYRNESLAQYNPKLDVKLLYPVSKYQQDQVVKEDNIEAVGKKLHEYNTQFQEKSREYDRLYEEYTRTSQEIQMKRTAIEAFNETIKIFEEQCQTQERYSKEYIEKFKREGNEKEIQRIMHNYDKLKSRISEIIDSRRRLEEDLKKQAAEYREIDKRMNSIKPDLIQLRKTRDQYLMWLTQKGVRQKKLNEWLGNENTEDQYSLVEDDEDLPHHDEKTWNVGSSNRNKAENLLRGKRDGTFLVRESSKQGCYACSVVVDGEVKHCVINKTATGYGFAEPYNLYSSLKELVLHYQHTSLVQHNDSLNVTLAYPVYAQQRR
Sequence of PI3K α (P42336 whole entry): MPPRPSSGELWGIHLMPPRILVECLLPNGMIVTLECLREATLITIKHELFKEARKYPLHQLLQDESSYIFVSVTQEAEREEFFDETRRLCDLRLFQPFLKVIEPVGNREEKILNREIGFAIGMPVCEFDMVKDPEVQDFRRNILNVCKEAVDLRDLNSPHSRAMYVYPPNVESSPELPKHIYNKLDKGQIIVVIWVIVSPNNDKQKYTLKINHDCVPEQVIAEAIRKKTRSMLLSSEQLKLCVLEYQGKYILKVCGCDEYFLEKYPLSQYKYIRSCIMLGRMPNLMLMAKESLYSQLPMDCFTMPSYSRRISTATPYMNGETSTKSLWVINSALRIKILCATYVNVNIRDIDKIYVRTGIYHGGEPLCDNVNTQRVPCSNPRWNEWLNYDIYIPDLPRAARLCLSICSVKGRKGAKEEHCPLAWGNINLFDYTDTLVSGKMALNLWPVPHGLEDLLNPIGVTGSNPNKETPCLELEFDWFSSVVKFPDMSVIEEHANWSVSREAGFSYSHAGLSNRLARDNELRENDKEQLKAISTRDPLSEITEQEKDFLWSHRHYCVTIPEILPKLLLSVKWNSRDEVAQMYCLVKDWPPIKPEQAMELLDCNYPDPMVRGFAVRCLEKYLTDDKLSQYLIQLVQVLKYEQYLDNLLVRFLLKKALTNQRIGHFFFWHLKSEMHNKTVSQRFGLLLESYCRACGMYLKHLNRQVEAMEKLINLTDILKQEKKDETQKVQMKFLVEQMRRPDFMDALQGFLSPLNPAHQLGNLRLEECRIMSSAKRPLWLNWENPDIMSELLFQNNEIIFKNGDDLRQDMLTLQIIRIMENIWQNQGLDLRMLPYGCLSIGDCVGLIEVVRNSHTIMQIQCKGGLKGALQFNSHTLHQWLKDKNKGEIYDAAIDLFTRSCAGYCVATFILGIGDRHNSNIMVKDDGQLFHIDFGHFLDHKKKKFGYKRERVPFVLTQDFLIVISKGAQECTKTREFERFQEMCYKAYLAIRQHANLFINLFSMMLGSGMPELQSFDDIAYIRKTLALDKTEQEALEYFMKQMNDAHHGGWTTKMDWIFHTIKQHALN
Sequence of PI3K α (P27986 whole entry partner): as the sequence (P27986 whole entry partner) above
Sequence of PI3K β (P42338 whole entry): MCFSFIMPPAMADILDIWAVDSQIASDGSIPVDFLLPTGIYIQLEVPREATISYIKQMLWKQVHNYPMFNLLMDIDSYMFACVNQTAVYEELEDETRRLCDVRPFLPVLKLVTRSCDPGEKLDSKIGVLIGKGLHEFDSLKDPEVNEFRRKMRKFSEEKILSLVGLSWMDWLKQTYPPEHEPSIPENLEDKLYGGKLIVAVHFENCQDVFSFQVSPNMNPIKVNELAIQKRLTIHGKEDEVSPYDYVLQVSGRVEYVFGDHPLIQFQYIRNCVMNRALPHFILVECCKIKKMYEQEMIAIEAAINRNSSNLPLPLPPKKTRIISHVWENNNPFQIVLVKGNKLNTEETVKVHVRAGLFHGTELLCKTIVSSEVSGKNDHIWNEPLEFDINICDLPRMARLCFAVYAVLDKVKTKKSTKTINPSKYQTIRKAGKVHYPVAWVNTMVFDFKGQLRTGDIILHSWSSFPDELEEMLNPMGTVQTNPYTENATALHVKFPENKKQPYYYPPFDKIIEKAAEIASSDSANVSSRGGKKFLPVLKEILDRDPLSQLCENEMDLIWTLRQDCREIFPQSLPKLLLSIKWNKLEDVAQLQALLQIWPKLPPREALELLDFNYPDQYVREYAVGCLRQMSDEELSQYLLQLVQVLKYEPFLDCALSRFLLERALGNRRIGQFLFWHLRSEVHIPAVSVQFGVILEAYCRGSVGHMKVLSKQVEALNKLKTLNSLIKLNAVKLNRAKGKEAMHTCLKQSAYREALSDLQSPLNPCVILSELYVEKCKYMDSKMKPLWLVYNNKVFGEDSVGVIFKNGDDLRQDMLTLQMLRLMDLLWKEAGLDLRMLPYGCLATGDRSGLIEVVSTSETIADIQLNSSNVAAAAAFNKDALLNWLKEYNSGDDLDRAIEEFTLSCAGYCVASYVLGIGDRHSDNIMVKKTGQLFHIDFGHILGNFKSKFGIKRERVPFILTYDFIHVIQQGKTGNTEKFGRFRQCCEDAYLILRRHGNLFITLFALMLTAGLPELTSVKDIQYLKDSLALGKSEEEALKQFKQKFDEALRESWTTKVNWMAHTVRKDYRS
Sequence of PI3K β (P27986 whole entry partner): as the sequence (P27986 whole entry partner) above

| Compound | IC50 (PI3K α) [µM] | IC50 (PI3K δ) [µM] | IC50 (PI3K γ; read-out: PI3K γ IC50) [µM] | IC50 (PI3K β) [µM] | IC50 [1] [µM] | IC50 (PI3K γ; read-out: PI3K δ IC50) [µM] |
| --- | --- | --- | --- | --- | --- | --- |
| Nc1nc2cccc(-c3ccc4nccc(-c5ccncc5)c4c3)c2s1 [Compound 17] | – | < 1 | < 0.1 | < 1 | – | – |
| CN1CCN(c2cc(-c3cnc4ccc(-c5ccc6oc(N)nc6c5)cn34)ccn2)CC1 [Compound 43] | < 0.1 | < 0.1 | < 0.1 | – | – | – |
| Nc1nc2cc(-c3ccc4ncc(N5CC(C(=O)N6CCOCC6)C5)nc4c3)ccc2o1 [drawing 442] | > 10 | – | – | < 10 | < 10 | < 10 |
| C[C@H]1CN(c2cnc3ccc(-c4cccc5c(N)nsc45)cc3n2)CCN1 | > 10 | – | – | > 10 | > 10 | > 10 |
| Nc1n[nH]c2c(-c3ccc4ncc(C(=O)N5CCOCC5)n4c3)cccc12 | > 10 | – | – | > 10 | > 10 | > 10 |
| C[C@H]1CN(c2cnc3ccc(-c4cccc5c(N)noc45)cc3n2)CCN1 | > 10 | – | – | > 10 | > 10 | > 10 |
| Nc1nc2cc(-c3cc(F)c4ncc(C(=O)N5CCOCC5)n4c3)ccc2o1 | < 10 | – | – | > 10 | > 10 | > 10 |
| Nc1nc2cc(-c3ccc4ncc(N5CC(N6CCOCC6)C5)nc4c3)cc(F)c2o1 | < 0.1 | – | – | < 1 | < 10 | < 1 |
| Cc1c(-c2ccc3ncc(C(=O)N4CCOCC4)n3c2)ccc2oc(N)nc12 | > 10 | – | – | > 10 | > 10 | > 10 |
| Nc1nc2cc(-c3ccc4ncc(C(=O)N5CC(N6CC[C@@H](O)C6)C5)n4c3)ccc2o1 | < 0.1 | – | – | < 10 | < 10 | < 1 |
| Cc1cc(-c2ccc3oc(N)nc3c2)cc2c(C(=O)N3CCCC3)cnn12 | < 0.1 | – | – | < 10 | < 1 | < 1 |
| CN1CCC(NC(=O)c2cnc3ccc(-c4ccc5oc(N)nc5c4)nn23)CC1 | < 0.1 | – | – | < 0.1 | < 1 | < 0.1 |
| Nc1nc2cc(-c3ccn4ncc(C(=O)N5CCC(N6CCOCC6)CC5)c4c3)ccc2o1 | < 1 | – | – | < 10 | < 10 | < 10 |
| Nc1nc2cc(-c3ccc4ncc(C(=O)N5CC6CCC(C5)O6)n4c3)ccc2o1 | < 1 | – | – | < 10 | > 10 | < 0.1 |
| Nc1nc2cc(-c3ccc4ncc(N5CC[C@@H](N6CCOCC6)C5)nc4c3)ccc2o1 | < 0.1 | – | – | < 10 | < 10 | < 0.1 |
| CNc1nc2cc(-c3ccc4ncc(C(=O)N5CCOCC5)n4c3)ccc2o1 | < 10 | – | – | < 10 | > 10 | > 10 |
| O=C(c1cnc2ccc(-c3cncc(NS(=O)(=O)c4ccccc4)c3)cn12)N1CCOCC1 | < 1 | – | – | > 10 | < 10 | < 1 |
| Cc1cc2ncc(C(=O)N3CCOCC3)n2cc1-c1ccc2oc(N)nc2c1 | > 10 | – | – | > 10 | > 10 | > 10 |
| CC(C)N1CCC(n2cnc3ccc(-c4cncc(NS(C)(=O)=O)c4)cc3c2=O)CC1 | > 10 | – | – | > 10 | > 10 | > 10 |
| O=C(c1cnc2ccc(-c3cnc(Cl)c(NS(=O)(=O)c4ccccc4F)c3)cn12)N1CCOCC1 | < 0.1 | – | – | < 1 | < 0.1 | < 0.1 |
| CNS(=O)(=O)c1cccc(-c2ccc3ncc(C(=O)N4CCOCC4)n3c2)c1 | > 10 | – | – | > 10 | > 10 | > 10 |
| COc1ccc(-c2ccc3ncc(C(=O)N4CCOCC4)n3c2)cc1S(=O)(=O)Nc1ccccc1 | < 10 | – | – | > 10 | > 10 | > 10 |
| C[C@H]1CN(c2cnc3cccc(-c4ccc5oc(N)nc5c4)c3n2)CCN1 | > 10 | – | – | > 10 | > 10 | > 10 |
| Nc1nc2cc(-c3ccc4nnc(C(=O)N5CCOCC5)n4c3)ccc2o1 | > 10 | – | – | > 10 | > 10 | > 10 |
| O=C(c1cnc2ccc(-c3cccc(NS(=O)(=O)c4ccc(F)cc4F)c3)cn12)N1CCOCC1 | < 10 | – | – | > 10 | < 10 | < 10 |
| Nc1nc2cccc(-c3ccc4ncc(C(=O)N5CCOCC5)n4c3)c2s1 | < 10 | – | – | > 10 | > 10 | > 10 |
| Nc1nc2cc(-c3ccc4ncc(C(=O)N5CCOCC5)n4c3)cc(F)c2o1 | < 0.1 | – | – | < 1 | < 10 | < 0.1 |

Continued, values first:

| IC50 (PI3K α) [µM] | IC50 (PI3K δ) [µM] | IC50 (PI3K γ; read-out: PI3K γ IC50) [µM] | IC50 (PI3K β) [µM] | IC50 [1] [µM] | IC50 (PI3K γ; read-out: PI3K δ IC50) [µM] | Compound |
| --- | --- | --- | --- | --- | --- | --- |
| < 0.1 | < 0.1 | < 0.1 | – | – | – | Nc1nc2cc(-c3ccc4ncc(C#CC5CC5)n4c3)ccc2o1 [Compound 39] |
| < 0.1 | < 0.1 | < 0.1 | – | – | – | Nc1nc2cc(-c3ccc4ncc(-c5cn[nH]c5)n4c3)ccc2o1 [Compound 38] |
| < 0.1 | < 1 | < 0.1 | – | – | – | CN1CCC(Oc2ncnc3ccc(-c4ccc5oc(N)nc5c4)cc23)CC1 [Compound 34] |
| < 0.1 | < 1 | < 1 | – | – | – | Nc1nc2cc(-c3ccc4nccc(NCCN5CCOCC5)c4c3)ccc2o1 [Compound 33] |
| < 0.1 | < 0.1 | < 0.1 | – | – | – | Nc1nc2cc(-c3ccc4ncnc(N5CCC(O)CC5)c4c3)ccc2o1 [Compound 29] |
| < 0.1 | < 1 | < 0.1 | – | – | – | Nc1nc2cc(-c3ccc4nccc(N5CCOCC5)c4c3)ccc2o1 [Compound 28] |
| < 0.1 | < 0.1 | < 0.1 | – | – | – | Nc1nc2cc(-c3ccc4ncc(-c5cccnc5)n4c3)ccc2o1 [Compound 37] |
| > 10 | – | – | > 10 | > 10 | > 10 | CC(=O)n1nc(N)c2ccc(-c3ccc4oc(N)nc4c3)cc21 |
| < 1 | – | – | > 10 | > 10 | < 10 | Nc1nc2cc(-c3ccc4ncc(C(=O)N5CCC6(C5)OCCO6)n4c3)ccc2o1 |
| < 0.1 | – | – | < 10 | > 10 | < 10 | CN(C)C1CN(c2cnc3ccc(-c4ccc5oc(N)nc5c4)cc3n2)C1 |
| < 0.1 | < 0.1 | < 0.1 | – | – | – | Nc1nc2cc(-c3ccc4nccc(-c5cccnc5)c4c3)ccc2o1 [Compound 31] |
| < 10 | – | – | > 10 | > 10 | > 10 | CCN1CCN(c2cnc3ccc(-c4ccc5oc(N)nc5c4)cc3n2)C(=O)C1 |
| < 10 | – | – | < 10 | > 10 | < 1 | Nc1nc2cc(-c3ccc4c(N)n[nH]c4c3)ccc2o1 |
| < 1 | < 10 | < 0.1 | – | – | – | Nc1nc2cc(-c3ccc4nccc(CCN5CCOCC5)c4c3)ccc2o1 [Compound 27] |
| < 10 | – | – | < 10 | > 10 | > 10 | Nc1nc2cc(-c3ccc4nnc(-c5cccnc5)n4c3)ccc2o1 |
| < 1 | – | – | < 1 | > 10 | < 10 | C[C@H]1CN(c2cnc3ccc(-c4ccc5nc(N)sc5c4)cc3n2)CCN1 |

| IC50 (PI3K α) [µM] | IC50 (PI3K δ) [µM] | IC50 (PI3K γ; read-out: PI3K γ IC50) [µM] | IC50 (PI3K β) [µM] | IC50 [1] [µM] | IC50 (PI3K γ; read-out: PI3K δ IC50) [µM] | Compound |
| --- | --- | --- | --- | --- | --- | --- |
| < 0.1 | < 0.1 | < 0.1 | – | – | – | CN1CCN(c2cc(-c3ccnc4ccc(-c5ccc6oc(N)nc6c5)cc34)ccn2)CC1 [Compound 30] |
| < 10 | > 10 | < 10 | – | – | – | Nc1nc2cc(-c3ccc4nccc(NC5CCOCC5)c4c3)ccc2o1 [Compound 32] |
| < 1 | – | – | < 10 | > 10 | < 10 | Nc1nc2cc(-c3ccc4ncc(C(=O)N(CCO)CCO)n4c3)ccc2o1 |
| < 0.1 | – | – | < 0.1 | < 0.1 | < 0.1 | CC(=O)N1CCC(Nc2ncnc3ccc(-c4ccc5oc(N)nc5c4)nc23)CC1 |
| < 10 | – | – | > 10 | > 10 | > 10 | CN(C)CCn1cnc2ccc(-c3ccc4oc(N)nc4c3)cc2c1=O |
| < 1 | – | – | < 1 | > 10 | < 10 | C[C@H]1CN(c2cnc3ccc(-c4ccc5nc(N)oc5c4)cc3n2)CCN1 |
| < 0.1 | < 0.1 | – | < 0.1 | – | – | Nc1nc2cc(-c3ccc4nccc(-c5cn[nH]c5)c4c3)ccc2o1 [Compound 20] |
| < 0.1 | – | – | < 10 | > 10 | < 10 | C[C@H]1COCCN1C(=O)c1cnc2ccc(-c3ccc4oc(N)nc4c3)cn12 |
| < 0.1 | – | – | < 10 | < 10 | < 0.1 | Nc1nc2cc(-c3ccc4ncc(C(=O)N5CC[C@@H](O)C5)n4c3)ccc2o1 |
| < 10 | > 10 | > 10 | – | – | – | CC(=O)N1CCC(n2cnc3ccc(-c4ccc5oc(N)nc5c4)cc3c2=O)CC1 |
| < 0.1 | – | – | < 0.1 | < 0.1 | < 0.1 | CC(=O)Nc1nc2cc(-c3ccc4nc(N)oc4c3)ccc2s1 |
| < 0.1 | – | – | < 1 | < 1 | < 10 | CC(C)[C@H](N)C(=O)N1CCN(c2cnc3ccc(-c4ccc5oc(N)nc5c4)cc3n2)CC1 |
| < 1 | – | – | < 10 | > 10 | > 10 | CN1CC(n2cnc3ccc(-c4ccc5oc(N)nc5c4)cc3c2=O)C1 |
| < 10 | – | – | < 10 | > 10 | < 10 | CC(=O)Nc1n[nH]c2cc(-c3ccc4oc(N)nc4c3)ccc12 |
| < 0.1 | – | – | < 1 | < 10 | < 10 | CN1CCN([C@H]2CCN(c3cnc4ccc(-c5ccc6oc(N)nc6c5)cc4n3)C2)CC1 |
